From publication PMC7997574, “Lead Optimization of Benzoxazolone Carboxamides as Orally Bioavailable and CNS Penetrant Acid Ceramidase Inhibitors” (Journal of Medicinal Chemistry, 2020)
≈ marks a conversion by molar mass, not a printed value.

Legend:
[1] = Aqueous kinetic solubility assay; type: physicochemical; conditions: PBS, pH 7.4
Summary of the method: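 Kinetic solubility from 10 mM MeCN stock spiked into PBS pH 7.4 at 250 μM target, shaken 1 h at 25 °C, then centrifuged. Dissolved compound in supernatant quantified by UPLC/MS with UV at 215 nm; mean of ≥2 experiments.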

[2] = In vitro mouse plasma protein binding (equilibrium dialysis); type: in vitro ADME; conditions: read-out: Fp, u (%) plasma fraction unbounded
Procedure: Studies were performed by the DMPK Group at Shanghai ChemPartner Co., Ltd., using the equilibrium dialysis method. Values are the mean of two technical replicates.

[3] = Maximum tolerated dose (MTD) study in C57BL/6 mice; type: in vivo, mouse; conditions: i.p. dose escalation 20, 40, 80, 120 mg kg^–1 over 4 days
Procedure: An MTD study was conducted on male C57BL/6 mice (15–19 g, 5 weeks old, SLAC Laboratory Animal Co. Ltd.). Animals were injected via intraperitoneal (i.p.) injection with single administration at 20 mg kg^–1 (N = 18, vehicle: 100% saline at 0.6 mg mL^–1) and multiple administrations for a duration of 4 days at 20 (N = 18, day 1), 40 (N = 18, day 2), 80 (N = 18, day 3), and 120 mg kg^–1 (N = 18, day 4). Clinical observations/samples of plasma, CSF, and brain were collected at 0.25, 0.5, 1, 4, 8, and 24 h. All procedures were performed in accordance with the Ethical Guidelines on the Protection of Animals Used for Scientific Purposes at the DMPK Group at Shanghai ChemPartner Co., Ltd.

[4] = system: SH-SY5Y cells; experiment: Sphingolipid levels in SH-SY5Y cells by LC/MS; type: cell-based, human
Procedure: SH-SY5Y cells were purchased from Sigma Aldrich (Italy) and cultured in Dulbecco’s modified Eagle’s medium (DMEM) containing 10% fetal bovine serum at 37 °C and 5% CO2. Drugs were dissolved in DMSO (10 mM) and diluted in the cell culture medium with reduced serum (1%) for cell treatments.
Lipid extraction and sphingolipid measurements were performed as previously described.[36],[37] Lipids were extracted with a CHCl3/MeOH mixture (2:1, 3 mL) containing internal standards. The organic phase was collected, dried under nitrogen, and dissolved in CHCl3/MeOH (1:3) for LC/MS analyses. Ceramides and sphingosine were analyzed by LC/MS/MS, using a Waters ACQUITY UPLC coupled to a Waters Xevo TQMS and interfaced with an ESI ion source. Separation was performed on a Waters ACQUITY BEH C18 1.7 μm column (2.1 × 50 mm) at 60 °C. A linear gradient of 0.1% formic acid in MeCN/isopropyl alcohol (20:80) as solvent B in 0.1% formic acid in MeCN/H2O (20:80) as solvent A was applied at a flow rate of 0.4 mL min^–1. Detection of sphingolipids was performed in positive-ion mode. Capillary voltage was 3.5 kV, and cone voltage was 25 V. The source temperature and desolvation temperatures were set at 120 and 600 °C, respectively. Desolvation gas and cone gas (N2) flows were 800 and 20 L h^–1, respectively. Ceramides were identified by comparison of their LC retention times and MS/MS fragmentation patterns with those of authentic standards (Avanti Polar Lipids). Multiple Reaction Monitoring (MRM) ion chromatograms were used to quantify myristoyl ceramide (C14:0, m/z: 492.5 > 264.3), palmitoyl ceramide (C16:0, m/z 520.3 > 264.3), stearoyl ceramide (C18:0, m/z: 548.3 > 264.3), lignoceroyl ceramide (C24:0, m/z: 632.3 > 264.3), and nervonoyl ceramide (C24:1 m/z: 630.3 > 264.3) using lauroyl ceramide standard (m/z: 464.5 > 264.3). Detection and analysis were controlled by Waters MassLynx software version 4.1. Sphingosine was identified by comparison of its LC retention times and MS2 fragmentation patterns with those of authentic standards (Avanti Polar Lipids). Extracted ion chromatograms were used to quantify sphingosine standard (d18:1, m/z: 300.5 > 282.5). Detection and analysis were controlled by Waters MassLynx software version 4.1. Calibration curves were prepared for every experiment.

CC(C)CNC(=O)n1c(=O)oc2cc(C3CCN(C)CC3)ccc21 [22m, N-Isobutyl-6-(1-methyl-4-piperidyl)-2-oxo-1,3-benzoxazole-3-carboxamide]
solubility at 1 h [1]: 240 µM (≈ 79.5 µg/mL) | fraction unbound [2]: 0.138 | clinical observations in MTD study [3]: no clinical abnormalities were observed | hexosylceramide (HexCer) (d18:1/16:0) levels [4]: no major variations | sphingomyelin (SM) (d18:1/16:0) levels [4]: no major variations | ceramide levels, Cer (d18:0/16:0) and Cer (d18:1/16:0) ([4]; 3 h of incubation): intracellular accumulation of various ceramide species | sphingosine levels ([4]; 3 h of incubation): decrease in the levels of sphingosine
